Organism: Rattus norvegicus
Experiment: Open TG-GATES - Regimen: Daily Repeat
Assay type: toxicity, organism-based, Sprague-Dawley
Design: regimen Daily Repeat, gender Male, age 6 weeks
Conditions: in vivo, po, 10 mg/kg, route gavage, dose level Low; for APTT / Bas / Eos / Fbg / Hb / Ht / Lym / MCH / MCHC / MCV / Mono / Neu / PT / Plat / RBC / Ret / WBC: tissue Blood; for KIDNEY_L / KIDNEY_R / KIDNEY_TOTAL: tissue Kidney; for LIVER: tissue Liver; for A/G / ALP / ALT / AST / BUN / CRE / Ca / Cl / DBIL / GLC / IP / K / LDH / Na / PL / RALB / TBIL / TC / TG / TP / gamma-GTP: tissue Plasma

OCCOCCN1CCN(C(c2ccccc2)c2ccc(Cl)cc2)CC1 (configuration not stated) [HYDROXYZINE]
TERMINAL_BW (72 h, time 3 day): 228.1 g
APTT (72 h, time 3 day): 16.3 s
Bas (72 h, time 3 day): 0%
Eos (72 h, time 3 day): 1%
Fbg (72 h, time 3 day): 261.4 mg/dL
Hb (72 h, time 3 day): 13 g/dL
Ht (72 h, time 3 day): 39.4%
Lym (72 h, time 3 day): 75.6%
MCH (72 h, time 3 day): 21.8 pg
MCHC (72 h, time 3 day): 33%
MCV (72 h, time 3 day): 65.9 fL
Mono (72 h, time 3 day): 2.6%
Neu (72 h, time 3 day): 20.2%
PT (72 h, time 3 day): 16 s
Plat (72 h, time 3 day): 110.5 x10_4/uL
RBC (72 h, time 3 day): 598 x10_4/ul
Ret (72 h, time 3 day): 7.3%
WBC (72 h, time 3 day): 96.2 x10_2/uL
KIDNEY_L (72 h, time 3 day): 1 g
KIDNEY_R (72 h, time 3 day): 1 g
KIDNEY_TOTAL (72 h, time 3 day): 2 g
LIVER (72 h, time 3 day): 10.8 g
A/G (72 h, time 3 day): 0.8
ALP (72 h, time 3 day): 1662 IU/L
ALT (72 h, time 3 day): 51.2 IU/L
AST (72 h, time 3 day): 82.4 IU/L
BUN (72 h, time 3 day): 16.2 mg/dL
CRE (72 h, time 3 day): 0.2 mg/dL
Ca (72 h, time 3 day): 10.8 mg/dL
Cl (72 h, time 3 day): 105.6 meq/L
DBIL (72 h, time 3 day): 0.018 mg/dL
GLC (72 h, time 3 day): 182 mg/dL
IP (72 h, time 3 day): 7.7 mg/dL
K (72 h, time 3 day): 4 meq/L
LDH (72 h, time 3 day): 98.8 IU/L
Na (72 h, time 3 day): 142.8 meq/L
PL (72 h, time 3 day): 139 mg/dL
RALB (72 h, time 3 day): 2.6 g/dL
TBIL (72 h, time 3 day): 0.054 mg/dL
TC (72 h, time 3 day): 71.6 mg/dL
TG (72 h, time 3 day): 76 mg/dL
TP (72 h, time 3 day): 5.6 g/dL
gamma-GTP (72 h, time 3 day): 0.8 IU/L
TERMINAL_BW ([…], time 7 day): 259.3 g
TERMINAL_BW ([…], time 14 day): 323.3 g
TERMINAL_BW ([…], time 28 day): 416.4 g
APTT ([…], time 7 day): 17 s
Bas ([…], time 7 day): 0%
Eos ([…], time 7 day): 1%
Fbg ([…], time 7 day): 263 mg/dL
Hb ([…], time 7 day): 13.8 g/dL
Ht ([…], time 7 day): 41.3%
Lym ([…], time 7 day): 80.6%
MCH ([…], time 7 day): 21.5 pg
MCHC ([…], time 7 day): 33.5%
MCV ([…], time 7 day): 64.4 fL
Mono ([…], time 7 day): 1.8%
Neu ([…], time 7 day): 16.2%
PT ([…], time 7 day): 15.7 s
Plat ([…], time 7 day): 117.5 x10_4/uL
RBC ([…], time 7 day): 643 x10_4/ul
Ret ([…], time 7 day): 5.9%
WBC ([…], time 7 day): 88.4 x10_2/uL
APTT ([…], time 14 day): 18.1 s
Bas ([…], time 14 day): 0%
Eos ([…], time 14 day): 0.8%
Fbg ([…], time 14 day): 266.4 mg/dL
Hb ([…], time 14 day): 14.2 g/dL
Ht ([…], time 14 day): 41.7%
Lym ([…], time 14 day): 81.2%
MCH ([…], time 14 day): 20.7 pg
MCHC ([…], time 14 day): 34%
MCV ([…], time 14 day): 60.9 fL
Mono ([…], time 14 day): 2.4%
Neu ([…], time 14 day): 15%
PT ([…], time 14 day): 15.7 s
Plat ([…], time 14 day): 111 x10_4/uL
RBC ([…], time 14 day): 685.8 x10_4/ul
Ret ([…], time 14 day): 4.3%
WBC ([…], time 14 day): 106.7 x10_2/uL
APTT ([…], time 28 day): 18.3 s
Bas ([…], time 28 day): 0%
Eos ([…], time 28 day): 1%
Fbg ([…], time 28 day): 297.2 mg/dL
Hb ([…], time 28 day): 15.4 g/dL
Ht ([…], time 28 day): 43.7%
Lym ([…], time 28 day): 80.4%
MCH ([…], time 28 day): 20.6 pg
MCHC ([…], time 28 day): 35.2%
MCV ([…], time 28 day): 58.4 fL
Mono ([…], time 28 day): 2%
Neu ([…], time 28 day): 15%
PT ([…], time 28 day): 15.9 s
Plat ([…], time 28 day): 90.9 x10_4/uL
RBC ([…], time 28 day): 748.8 x10_4/ul
Ret ([…], time 28 day): 2.6%
WBC ([…], time 28 day): 105.9 x10_2/uL
KIDNEY_L ([…], time 7 day): 1.1 g
KIDNEY_R ([…], time 7 day): 1.1 g
KIDNEY_TOTAL ([…], time 7 day): 2.1 g
KIDNEY_L ([…], time 14 day): 1.3 g
KIDNEY_R ([…], time 14 day): 1.3 g
KIDNEY_TOTAL ([…], time 14 day): 2.7 g
KIDNEY_L ([…], time 28 day): 1.4 g
KIDNEY_R ([…], time 28 day): 1.4 g
KIDNEY_TOTAL ([…], time 28 day): 2.8 g
LIVER ([…], time 7 day): 12.6 g
LIVER ([…], time 14 day): 14.7 g
LIVER ([…], time 28 day): 16.8 g
A/G ([…], time 7 day): 0.9
ALP ([…], time 7 day): 1602.2 IU/L
ALT ([…], time 7 day): 41 IU/L
AST ([…], time 7 day): 65.8 IU/L
BUN ([…], time 7 day): 17.4 mg/dL
CRE ([…], time 7 day): 0.2 mg/dL
Ca ([…], time 7 day): 11.1 mg/dL
Cl ([…], time 7 day): 106 meq/L
DBIL ([…], time 7 day): 0.018 mg/dL
GLC ([…], time 7 day): 189 mg/dL
IP ([…], time 7 day): 7.2 mg/dL
K ([…], time 7 day): 4.3 meq/L
LDH ([…], time 7 day): 66.2 IU/L
Na ([…], time 7 day): 142.6 meq/L
PL ([…], time 7 day): 158.2 mg/dL
RALB ([…], time 7 day): 2.7 g/dL
TBIL ([…], time 7 day): 0.052 mg/dL
TC ([…], time 7 day): 72.6 mg/dL
TG ([…], time 7 day): 118.4 mg/dL
TP ([…], time 7 day): 5.9 g/dL
gamma-GTP ([…], time 7 day): 0.8 IU/L
A/G ([…], time 14 day): 0.8
ALP ([…], time 14 day): 1484.2 IU/L
ALT ([…], time 14 day): 40.8 IU/L
AST ([…], time 14 day): 67.2 IU/L
BUN ([…], time 14 day): 15.4 mg/dL
CRE ([…], time 14 day): 0.2 mg/dL
Ca ([…], time 14 day): 10.6 mg/dL
Cl ([…], time 14 day): 103.6 meq/L
DBIL ([…], time 14 day): 0.016 mg/dL
GLC ([…], time 14 day): 184.6 mg/dL
IP ([…], time 14 day): 7.3 mg/dL
K ([…], time 14 day): 4 meq/L
LDH ([…], time 14 day): 86.2 IU/L
Na ([…], time 14 day): 141.6 meq/L
PL ([…], time 14 day): 163 mg/dL
RALB ([…], time 14 day): 2.7 g/dL
TBIL ([…], time 14 day): 0.052 mg/dL
TC ([…], time 14 day): 74.8 mg/dL
TG ([…], time 14 day): 142.4 mg/dL
TP ([…], time 14 day): 6 g/dL
gamma-GTP ([…], time 14 day): 0.6 IU/L
A/G ([…], time 28 day): 0.8
ALP ([…], time 28 day): 1346.6 IU/L
ALT ([…], time 28 day): 41.4 IU/L
AST ([…], time 28 day): 69.6 IU/L
BUN ([…], time 28 day): 17.4 mg/dL
CRE ([…], time 28 day): 0.2 mg/dL
Ca ([…], time 28 day): 10.6 mg/dL
Cl ([…], time 28 day): 105 meq/L
DBIL ([…], time 28 day): 0.012 mg/dL
GLC ([…], time 28 day): 196.8 mg/dL
IP ([…], time 28 day): 6.8 mg/dL
K ([…], time 28 day): 4 meq/L
LDH ([…], time 28 day): 100.8 IU/L
Na ([…], time 28 day): 142.6 meq/L
PL ([…], time 28 day): 154.8 mg/dL
RALB ([…], time 28 day): 2.8 g/dL
TBIL ([…], time 28 day): 0.05 mg/dL
TC ([…], time 28 day): 76.8 mg/dL
TG ([…], time 28 day): 113.4 mg/dL
TP ([…], time 28 day): 6.3 g/dL
gamma-GTP ([…], time 28 day): 0.8 IU/L
